What is called IC50 is the concentration that gives 50% inhibition. Read a low IC50 as greater potency in that assay. As a reminder, the EC50 is the concentration needed to bring the measured effect to its halfway point.

Among the data in ChEMBL document CHEMBL2010672, “Pyridyl aminothiazoles as potent Chk1 inhibitors: optimization of cellular activity” (Bioorg Med Chem Lett, 2012) are IC50 and EC50 values, retold here.

The target of experiment [1] is Cyclin-dependent kinase 7 (Homo sapiens, UniProt P50613). Put plainly: Inhibition of CDK7.
For the next experiment, the system named is NCI-H1299. Put plainly: Inhibition of DNA damage-induced cell cycle arrest in human H1299 cells assessed as progression into mitosis measuring mitosis specific-phosphorylation of nucleolin after 8 hrs by checkpoint escape assay. To be noted: NCI-H1299, 8 h. In kind it is functional, cell-based.
Experiment [2] concerns the target T1, Serine/threonine-protein kinase Chk1 (Homo sapiens, UniProt O14757).
T1 sequence (O14757 whole entry): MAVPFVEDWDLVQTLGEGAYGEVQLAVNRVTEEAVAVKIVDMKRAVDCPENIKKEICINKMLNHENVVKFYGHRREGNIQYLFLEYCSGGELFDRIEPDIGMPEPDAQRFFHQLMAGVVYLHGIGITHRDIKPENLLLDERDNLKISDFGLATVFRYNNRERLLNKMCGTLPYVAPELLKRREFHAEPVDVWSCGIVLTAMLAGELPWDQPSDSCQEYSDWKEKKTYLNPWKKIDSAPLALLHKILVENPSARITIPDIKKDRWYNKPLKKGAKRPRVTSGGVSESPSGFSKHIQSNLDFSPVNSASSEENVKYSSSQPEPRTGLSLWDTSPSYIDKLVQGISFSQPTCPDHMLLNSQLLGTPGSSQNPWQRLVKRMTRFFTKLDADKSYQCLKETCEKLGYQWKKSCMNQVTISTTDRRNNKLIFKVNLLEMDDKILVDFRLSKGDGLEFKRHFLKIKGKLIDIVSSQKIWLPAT
Put plainly: Inhibition of CHK1 by time resolved fluorescence assay.

Chain of Cyclin-dependent kinase 7 (P50613 whole entry): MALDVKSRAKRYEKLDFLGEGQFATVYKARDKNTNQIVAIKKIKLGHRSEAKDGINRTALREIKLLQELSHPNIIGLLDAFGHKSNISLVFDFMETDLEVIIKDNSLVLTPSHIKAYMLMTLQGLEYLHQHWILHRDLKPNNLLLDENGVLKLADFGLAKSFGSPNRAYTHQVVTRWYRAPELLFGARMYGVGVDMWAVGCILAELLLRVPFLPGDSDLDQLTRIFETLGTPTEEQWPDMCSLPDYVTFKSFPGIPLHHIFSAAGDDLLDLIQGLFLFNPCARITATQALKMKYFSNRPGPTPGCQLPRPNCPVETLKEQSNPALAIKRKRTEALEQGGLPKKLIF

As for `Cc1cccnc1Nc1ncc(-c2cncc(C(=O)NCCN)c2)s1`, the IC50 in experiment [1] amounted to 910 nM; in experiment [2] it was 0.4 nM. For the same compound, in the experiment on NCI-H1299, the EC50 was found to be 430 nM.

Turning to `O=C(NCC(F)(F)F)c1cncc(-c2cnc(Nc3cc(N4CCOCC4)ccn3)s2)c1`, the values for the half-maximal inhibitory concentration (IC50) in experiment [1] and in experiment [2] were 705 nM and 1.6 nM, respectively. The EC50 with NCI-H1299 was 198 nM.

The compound `c1ncc(-c2cncc(-c3cnc(Nc4cc(N5CCOCC5)ccn4)s3)c2)cn1` yielded a 50% inhibitory concentration (IC50) in experiment [1] of more than 10000 nM. The concentration for a half-maximal effect (EC50) in the experiment with NCI-H1299 was more than 10000 nM.

Take `c1cncc(-c2cncc(-c3cnc(Nc4cc(N5CCNCC5)ccn4)s3)c2)c1`: the figures for the 50% inhibitory concentration (IC50) in experiment [1] and in experiment [2] were more than 10000 nM and 5 nM, respectively. Also, in the experiment on NCI-H1299, the concentration giving a half-maximal response (EC50) was 570 nM.

For the compound `NCCNC(=O)c1cccc(-c2cnc(Nc3cc(N4CCC(F)(F)CC4)ccn3)s2)c1`, the IC50 in experiment [1] was found to be 160 nM; in experiment [2], 8 nM. Further, the EC50 with NCI-H1299 was more than 10000 nM.

The compound `Cc1ccc(-c2cnc(Nc3cc(N4CCNCC4)ccn3)s2)cn1` showed an IC50 in experiment [1] of more than 20000 nM. Also, the EC50 with NCI-H1299 was determined as 1370 nM.

Regarding `NCCNC(=O)c1cncc(-c2cnc(Nc3cc(Cl)ccn3)s2)c1`, the IC50 worked out at 940 nM in experiment [1] and 16 nM in experiment [2]. Besides, in the experiment with NCI-H1299, the half-maximal effective concentration (EC50) was 940 nM.

Turning to `NCCNC(=O)c1cncc(-c2cnc(Nc3cc(N4CCC(F)CC4)ccn3)s2)c1`, the half-maximal inhibitory concentration (IC50) in experiment [1] was found to be 350 nM; in experiment [2], 0.07 nM. The EC50 with NCI-H1299 worked out at 484 nM.

For `CS(=O)(=O)N1CCN(c2ccnc(Nc3ncc(-c4cncc(C(=O)NCC(F)(F)F)c4)s3)c2)CC1`, the IC50 in experiment [1] was 2100 nM; in experiment [2] it was 1.7 nM. Also, the EC50 in the experiment on NCI-H1299 turned out to be 106 nM.

Turning to `c1ccc(-c2cnc(Nc3cccc(N4CCNCC4)n3)s2)cc1`, the figures for the IC50 in experiment [1] and in experiment [2] were 26 nM and 33 nM, respectively. The concentration for a half-maximal effect (EC50) in the experiment with NCI-H1299 was more than 16700 nM.

As for `Cc1ccc(-c2cnc(Nc3cccc(N4CCNCC4)n3)s2)cn1`, the IC50 in experiment [1] was 1000 nM; in experiment [2], 38 nM. In addition, the EC50 with NCI-H1299 was more than 16700 nM.

With `Cn1cc(-c2cncc(-c3cnc(Nc4cc(N5CCNCC5)ccn4)s3)c2)cn1`, the IC50 was more than 2000 nM in experiment [1] and 6 nM in experiment [2]. The half-maximal effective concentration (EC50) in the experiment with NCI-H1299 was found to be 1330 nM.

`CNC(=O)c1cncc(-c2cnc(Nc3cc(N4CCOCC4)ccn3)s2)c1`: the 50% inhibitory concentration (IC50) in experiment [1] is more than 10000 nM; in experiment [2], 7 nM. The EC50 with NCI-H1299 is 300 nM.

For `Brc1cncc(-c2cnc(Nc3cc(N4CCNCC4)ccn3)s2)c1`, the 50% inhibitory concentration (IC50) is 480 nM in experiment [1] and 21 nM in experiment [2]. Besides, the EC50 with NCI-H1299 was more than 50000 nM.

In the case of `NCCNC(=O)c1cncc(-c2cnc(Nc3cc(N4CCOCC4)ccn3)s2)c1`, in experiment [1], the IC50 amounted to 340 nM. The 50% effective concentration (EC50) with NCI-H1299 was determined as 460 nM.

For `NCCNC(=O)c1cncc(-c2cnc(Nc3ccccc3Cl)s2)c1`, the IC50 is more than 10000 nM in experiment [1] and 33 nM in experiment [2]. Further, in the experiment on NCI-H1299, the EC50 is more than 10000 nM.

Consider `c1cncc(-c2cncc(-c3cnc(Nc4cc(N5CCOCC5)ccn4)s3)c2)c1`, for which the IC50 in experiment [1] was more than 10000 nM. The EC50 with NCI-H1299 is more than 10000 nM.

Regarding `O=C(CN1CCN(c2ccnc(Nc3ncc(-c4cccnc4)s3)c2)CC1)N1CCOCC1`, in experiment [1], inhibition was half-maximal at 1760 nM (IC50). The concentration giving a half-maximal response (EC50) in the experiment with NCI-H1299 is more than 50000 nM.

On to `CS(=O)(=O)N1CCN(c2ccnc(Nc3ncc(-c4cncc(C(=O)NCCN)c4)s3)c2)CC1`, for which, in experiment [1], the 50% inhibitory concentration (IC50) came to 170 nM. Besides, in the experiment on NCI-H1299, the EC50 stood at 500 nM.

Take `c1ncc(-c2cnc(Nc3cc(N4CCNCC4)ccn3)s2)cn1`: the half-inhibitory concentration (IC50) turned out to be 11000 nM in experiment [1] and 29 nM in experiment [2]. In addition, the EC50 with NCI-H1299 is 1530 nM.

For `O=C(NCCO)c1cncc(-c2cnc(Nc3cc(N4CCOCC4)ccn3)s2)c1`, the IC50 is more than 10000 nM in experiment [1] and 15 nM in experiment [2]. Moreover, in the experiment with NCI-H1299, the EC50 was more than 10000 nM.

On to `O=C(O)c1cncc(-c2cnc(Nc3cc(N4CCNCC4)ccn3)s2)c1`, for which the IC50 in experiment [1] was more than 10000 nM; in experiment [2] it was 16 nM. Also, the EC50 in the experiment on NCI-H1299 is more than 10000 nM.

Turning to `Cc1ccc(NC(=O)c2cncc(-c3cnc(Nc4cc(N5CCOCC5)ccn4)s3)c2)s1`, the 50% inhibitory concentration (IC50) in experiment [1] was more than 10000 nM; in experiment [2] it was 12 nM. Besides, in the experiment on NCI-H1299, the concentration giving a half-maximal response (EC50) amounted to 920 nM.

Take `NC(=O)c1cncc(-c2cnc(Nc3cc(N4CCOCC4)ccn3)s2)c1`: the IC50 in experiment [1] was more than 3700 nM; in experiment [2] it was 10 nM. The EC50 with NCI-H1299 is more than 10000 nM.

As for `NCCNC(=O)c1cncc(-c2cnc(Nc3ncccc3Cl)s2)c1`, the IC50 in experiment [1] came to 960 nM; in experiment [2], 0.3 nM. The EC50 in the experiment on NCI-H1299 turned out to be 330 nM.

In experiment [1], `c1cc(N2CCNCC2)cc(Nc2ncc(-c3cncc(-c4cn[nH]c4)c3)s2)n1` displayed a 50% inhibitory concentration (IC50) of 260 nM. For the same compound, the EC50 with NCI-H1299 was found to be 5530 nM.

Regarding `c1cc(Nc2ncc(-c3cncnc3)s2)nc(N2CCNCC2)c1`, the IC50 worked out at 410 nM in experiment [1] and 160 nM in experiment [2].

For the compound `c1cn(-c2cncc(-c3cnc(Nc4cc(N5CCOCC5)ccn4)s3)c2)nn1`, the half-maximal inhibitory concentration (IC50) in experiment [1] was more than 10000 nM; in experiment [2] it was 9 nM. Besides, the EC50 with NCI-H1299 is 1390 nM.

On to `NCCCCc1cncc(-c2cnc(Nc3cc(N4CCOCC4)ccn3)s2)c1`, for which the IC50 was more than 10000 nM in experiment [1] and 12 nM in experiment [2].

As to `CC(=O)N1CCN(c2ccnc(Nc3ncc(-c4cncc(C(=O)NCCN)c4)s3)c2)CC1`, in experiment [1], the IC50 amounted to 210 nM. Besides, in the experiment on NCI-H1299, the EC50 worked out at 1210 nM.

Regarding `Cc1ccc(-c2cnc(Nc3cccc(NCCCN)n3)s2)cn1`, the concentration for half-maximal inhibition (IC50) was found to be 870 nM in experiment [1] and 27 nM in experiment [2]. The half-maximal effective concentration (EC50) with NCI-H1299 was more than 16700 nM.
